Reference: patent US9649324B2, “Use of tylvalosin as antiviral agent” (ECO ANIMAL HEALTH LIMITED, priority 2006, dated 2017)

Key:
[1] = system: human Udorn strain of influenza; experiment: Influenza infection of MDCK cells, immunofluorescence (Example 4), strain Udorn; assay type: cell-based; details: 1 μg/ml, 4 h pretreatment, moi 10, fixed 4 h post infection
[2] = cited from earlier work
PRRSV strain, VR2385 = experiment: Efficacy of tylvalosin in feed for the control of PRRSV in challenged pigs (Example 14); assay type: in vivo, pig; details: for Mean maximum respiratory score: score 0-6
PRRSV = experiment: Inhibitors of PRRSV infection added at various times pre and post infection (Example 7); assay type: cell-based
[3] = system: VR2332 (US strain of PRRSV); experiment: VR2332 (US strain of PRRSV) entry assay in MA104 cells (Example 10); details: 4 h pretreatment, moi 10, overnight
[4] = system: equine arteritis virus (EAV); experiment: Effect on equine arteritis virus infection (Example 6); assay type: cell-based
Protocol: Experiments were carried out to determine whether tylvalosin has an effect on equine arteritis virus (EAV).

[5] = Group 1, 100 ppm in feed, Trial Day 17
[6] = Group 1, 100 ppm in feed, Trial Day 28
[7] = Group 2, 200 ppm in feed, Trial Day 17
[8] = Group 2, 200 ppm in feed, Trial Day 28
[9] = Group 3, 600 ppm in feed, Trial Day 17
[10] = Group 3, 600 ppm in feed, Trial Day 28
[11] = added 2 or 4 hours after infection

CCC1OC(=O)CC(OC(C)=O)C(C)C(OC2OC(C)C(OC3CC(C)(O)C(OC(=O)CC(C)C)C(C)O3)C(N(C)C)C2O)C(CC=O)CC(C)C(=O)C=CC(C)=CC1COC1OC(C)C(O)C(OC)C1OC (stereo not shown) [tylvalosin, 3-O acetyl-4″-O-isovaleryltylosin]
inhibition of infection of MDCK cells [1]: 76%
pKa [2]: 7.6
severity of macroscopic pneumonia (PRRSV strain, VR2385; 100, 200, 600 ppm in feed versus non-treated controls): No differences
Mean average rectal temperature (PRRSV strain, VR2385; Group 1, 100 ppm in feed): 103.6 ± 0.1
Mean maximum rectal temperature (PRRSV strain, VR2385; Group 1, 100 ppm in feed): 104.5 ± 0.2 A
Mean microscopic PRRSV lung lesion score (PRRSV strain, VR2385; Group 1, 100 ppm in feed, Necropsy 1 (Trial Day 17, 10 days post infection)): 0.2 ± 0.2 A
Mean microscopic PRRSV lung lesion score (PRRSV strain, VR2385; Group 1, 100 ppm in feed, Necropsy 2 (Trial Day 28, 21 days post infection)): 2.1 ± 0.4
Average daily gain (PRRSV strain, VR2385; Group 1, 100 ppm in feed, Trial Day 7): 1.57 ± .09 lbs
Mean real-time RT-PCR (PRRSV RNA copy numbers in serum) (PRRSV strain, VR2385; Group 1, 100 ppm in feed, Trial Day 10): 15,289.88 B, C
Average daily gain (PRRSV strain, VR2385; Group 1, 100 ppm in feed, Trial Day 14): 1.5 ± .05 lbs
Average daily gain (PRRSV strain, VR2385; [5]): 1.59 ± .05 A lbs
Mean real-time RT-PCR (PRRSV RNA copy numbers in serum) (PRRSV strain, VR2385; [5]): 95,315.72
Mean real-time RT-PCR (PRRSV RNA copy numbers in serum) (PRRSV strain, VR2385; Group 1, 100 ppm in feed, Trial Day 21): 36,451.13
Average daily gain (PRRSV strain, VR2385; [6]): 1.42 ± .05 lbs
Mean real-time RT-PCR (PRRSV RNA copy numbers in serum) (PRRSV strain, VR2385; [6]): 5,301.63
Mean maximum respiratory score (PRRSV strain, VR2385; Group 1, 100 ppm in feed): 0.5 ± 0.1 A*
Mean average rectal temperature (PRRSV strain, VR2385; Group 2, 200 ppm in feed): 103.7 ± 0.1
Mean maximum rectal temperature (PRRSV strain, VR2385; Group 2, 200 ppm in feed): 104.7 ± 0.2 A
Mean microscopic PRRSV lung lesion score (PRRSV strain, VR2385; Group 2, 200 ppm in feed, Necropsy 1 (Trial Day 17, 10 days post infection)): 2.0 ± 0.3 B
Mean microscopic PRRSV lung lesion score (PRRSV strain, VR2385; Group 2, 200 ppm in feed, Necropsy 2 (Trial Day 28, 21 days post infection)): 1.9 ± 0.3
Average daily gain (PRRSV strain, VR2385; Group 2, 200 ppm in feed, Trial Day 7): 1.52 ± .10 lbs
Mean real-time RT-PCR (PRRSV RNA copy numbers in serum) (PRRSV strain, VR2385; Group 2, 200 ppm in feed, Trial Day 10): 19,336.8 C
Average daily gain (PRRSV strain, VR2385; Group 2, 200 ppm in feed, Trial Day 14): 1.45 ± .06 lbs
Average daily gain (PRRSV strain, VR2385; [7]): 1.59 ± .07 A, B lbs
Mean real-time RT-PCR (PRRSV RNA copy numbers in serum) (PRRSV strain, VR2385; [7]): 78,804.81
Mean real-time RT-PCR (PRRSV RNA copy numbers in serum) (PRRSV strain, VR2385; Group 2, 200 ppm in feed, Trial Day 21): 18,724.88
Average daily gain (PRRSV strain, VR2385; [8]): 1.53 ± .07 lbs
Mean real-time RT-PCR (PRRSV RNA copy numbers in serum) (PRRSV strain, VR2385; [8]): 892.36
Mean maximum respiratory score (PRRSV strain, VR2385; Group 2, 200 ppm in feed): 0.6 ± 0.2 A
Mean average rectal temperature (PRRSV strain, VR2385; Group 3, 600 ppm in feed): 103.8 ± 0.1
Mean maximum rectal temperature (PRRSV strain, VR2385; Group 3, 600 ppm in feed): 105.8 ± 0.3 B
Mean microscopic PRRSV lung lesion score (PRRSV strain, VR2385; Group 3, 600 ppm in feed, Necropsy 1 (Trial Day 17, 10 days post infection)): 2.0 ± 0.3 B
Mean microscopic PRRSV lung lesion score (PRRSV strain, VR2385; Group 3, 600 ppm in feed, Necropsy 2 (Trial Day 28, 21 days post infection)): 1.5 ± 0.3
Average daily gain (PRRSV strain, VR2385; Group 3, 600 ppm in feed, Trial Day 7): 1.83 + .16 lbs
Mean real-time RT-PCR (PRRSV RNA copy numbers in serum) (PRRSV strain, VR2385; Group 3, 600 ppm in feed, Trial Day 10): 54,487.19 A, B
Average daily gain (PRRSV strain, VR2385; Group 3, 600 ppm in feed, Trial Day 14): 1.47 ± .06 lbs
Average daily gain (PRRSV strain, VR2385; [9]): 1.44 ± .04 A, B lbs
Mean real-time RT-PCR (PRRSV RNA copy numbers in serum) (PRRSV strain, VR2385; [9]): 146,655.4
Mean real-time RT-PCR (PRRSV RNA copy numbers in serum) (PRRSV strain, VR2385; Group 3, 600 ppm in feed, Trial Day 21): 30,260.69
Average daily gain (PRRSV strain, VR2385; [10]): 1.47 ± .06 lbs
Mean real-time RT-PCR (PRRSV RNA copy numbers in serum) (PRRSV strain, VR2385; [10]): 1,292.31
Mean maximum respiratory score (PRRSV strain, VR2385; Group 3, 600 ppm in feed): 1.8 ± 0.3 B
clinical disease and viremia associated with PRRSV infection (PRRSV strain, VR2385; lower doses (in feed)): appears to reduce clinical disease and viremia
PRRSV spread (PRRSV; [11]): inhibited
initial PRRSV infection (initial site of infection) (PRRSV; [11]): inhibited
initial PRRSV infection (PRRSV; added 4 hours before infection): inhibited
initial PRRSV infection (PRRSV; added at the time of infection): inhibited
inhibition of VR2332 infection [3]: sensitive
EAV infection [4]: not blocked
